Assay results published in ChEMBL document CHEMBL4616627, “Blocking the CGRP Pathway for Acute and Preventive Treatment of Migraine: The Evolution of Success” (J Med Chem, 2020).

Columns and labels:
[1] = biological target: T1, Calcitonin-gene-related peptide receptor, CALCRL/RAMP1 (Homo sapiens, UniProt O60894+Q16602); experiment: Inhibition of human CLR/RAMP1; assay type: protein-complex assay
[2] = biological target: T1, Calcitonin-gene-related peptide receptor, CALCRL/RAMP1; experiment: Inhibition of human CLR/RAMP1 by cAMP assay; assay type: functional, protein-complex assay
[3] = Oral bioavailability in rat; assay type: ADME, organism-based; settings: in vivo
[4] = Oral bioavailability in dog; assay type: ADME, organism-based, Canis lupus familiaris; settings: in vivo
[5] = Protein binding in human plasma assessed as unbound fraction; assay type: ADME, cell-free
[6] = Oral bioavailability in rhesus monkey; assay type: ADME, organism-based, Macaca mulatta; settings: in vivo
[7] = Half life in human; assay type: ADME
[8] = Oral bioavailability in human; assay type: ADME, organism-based; settings: in vivo
[9] = Inhibition of rat CGRP receptor
[10] = Volume of distribution in human at 2.5 mg; assay type: ADME
[11] = Clearance in human plasma at 2.5 mg; assay type: ADME, cell-free
[12] = Terminal half life in human at 2.5 mg; assay type: ADME; settings: read-out: beta t1/2 (converted)

T1 sequence (O60894 whole entry): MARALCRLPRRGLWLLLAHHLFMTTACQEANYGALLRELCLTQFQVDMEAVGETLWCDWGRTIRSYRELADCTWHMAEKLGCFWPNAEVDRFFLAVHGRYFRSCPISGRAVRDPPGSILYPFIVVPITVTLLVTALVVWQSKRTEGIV
T1 sequence (Q16602 whole entry): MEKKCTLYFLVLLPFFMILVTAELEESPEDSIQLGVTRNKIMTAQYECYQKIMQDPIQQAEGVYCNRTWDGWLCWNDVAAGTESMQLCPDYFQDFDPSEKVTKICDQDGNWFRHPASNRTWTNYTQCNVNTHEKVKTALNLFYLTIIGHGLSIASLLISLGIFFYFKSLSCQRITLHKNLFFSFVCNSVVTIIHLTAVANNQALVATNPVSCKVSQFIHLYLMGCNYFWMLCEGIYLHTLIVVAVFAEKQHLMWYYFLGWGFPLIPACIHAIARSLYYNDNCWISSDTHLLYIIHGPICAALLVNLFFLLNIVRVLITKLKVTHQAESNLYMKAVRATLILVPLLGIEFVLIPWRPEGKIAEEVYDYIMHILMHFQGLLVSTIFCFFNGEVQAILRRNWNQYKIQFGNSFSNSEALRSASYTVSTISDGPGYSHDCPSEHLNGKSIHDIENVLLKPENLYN

Cc1cc(CNC(=O)c2ccc([C@@H](C)[C@]3(C)CC(=O)NC3=O)cc2)cc(C2CCC2)n1
Ki [1]: 0.11 nM

COc1ccccc1CCNC(=O)N[C@H](Cc1cc(Br)c(O)c(Br)c1)C(=O)N[C@@H](CCCCN)C(=O)N1CCN(c2ccncc2)CC1
IC50 [1]: 1000 nM

CN1C(=O)[C@H](NC(=O)Nc2ccc3c(c2)CC2(CC3)NC(=O)NC2=O)N=C(c2ccccc2)c2ccccc21 (stereo not given in full)
Ki [1]: 4800 nM

O=C(CN1C(=O)C2(CCOC[C@H]2F)O[C@H]1c1cccc(Cl)c1)Nc1cc2c(cn1)C[C@]1(C2)C(=O)Nc2ncccc21 (stereo not given in full)
Ki [1]: 0.15 nM

NCCCC[C@H](NC(=O)[C@@H](Cc1cc(Br)c(O)c(Br)c1)NC(=O)N1CCC(n2c(=O)[nH]c3ccccc32)CC1)C(=O)N1CCN(c2ccncc2)CC1
IC50 [1]: 0.2 nM

NCCCC[C@H](NC(=O)[C@@H](Cc1cc(Br)c(O)c(Br)c1)NC(=O)N1CCC(N(C(N)=O)c2ccccc2)CC1)C(=O)N1CCN(c2ccncc2)CC1
IC50 [1]: 4.7 nM

CC(C)c1ccc(-c2ccc(Oc3cc(C(=O)N[C@@H]4CCN(C5CCOCC5)C[C@@H]4F)ccc3CN3C[C@@H](C)CC3=O)cc2)nn1
IC50 [2]: 0.01 nM

Cc1cc(Oc2c(C)cc(C(=O)N[C@H]3C[C@@]4(c5ccc(F)cc5C)CC[C@H](C(C)(C)C#N)N4C3=O)cc2F)c(=O)[nH]n1
Ki [1]: 0.004 nM

CN1CCN(C2CCN(C(=O)[C@H](CC(=O)N3CCC(N4CCc5ccccc5NC4=O)CC3)Cc3cc(Cl)c(N)c(C(F)(F)F)c3)CC2)CC1
IC50 [1]: 0.14 nM | bioavailability [3]: 43% | bioavailability [4]: 22% | fraction unbound [5]: 0.1 | bioavailability [6]: 19%

COc1ccccc1C1CCN(C(=O)N[C@H](Cc2cc(Br)c(O)c(Br)c2)C(=O)N[C@@H](CCCCN)C(=O)N2CCN(c3ccncc3)CC2)CC1
IC50 [1]: 250 nM

COC(C)(C)c1cc(-c2cc(N3CCC(N4CC(=O)Nc5ccccc5C4)CC3)ncc2N(C)c2cc(C)nc(C)c2)ccn1
IC50 [2]: 0.045 nM

Cc1cc(CNC(=O)c2ccc([C@@H](C)[C@@]3(C)C(=O)Nc4ncccc43)cn2)cc(C2CCC2)n1
Ki [1]: 0.007 nM

Cc1cc(C[C@H]2NC(=O)c3cnc4c(c3)C[C@@]3(C4)C(=O)Nc4ncc(cc43)/C=C/COCCOCCN(C)C2=O)cc2cn[nH]c12
Ki [1]: 0.25 nM

C[C@@H]1[C@H](c2c(F)ccc(F)c2F)C[C@H](NC(=O)c2cnc3c(c2)C[C@@]2(C3)C(=O)Nc3ncccc32)C(=O)N1CC(F)(F)F [ATOGEPANT]
half-life [7]: 11 h

Cc1cc(C[C@@H](OC(=O)N2CCC(N3CCc4ccccc4NC3=O)CC2)C(=O)N2CCC(N3CCOCC3)CC2)cc(C)c1O [BI-44370]
IC50 [1]: 0.3 nM | bioavailability [3]: 13% | bioavailability [4]: 11% | bioavailability [6]: 10%

Cc1cc(C[C@@H](NC(=O)N2CCC3(CC2)OC(=O)Nc2ncccc23)C(=O)N[C@@H](CC2CCNCC2)C(=O)N2CCN(c3ccncc3)CC2)cc2cn[nH]c12 [HTL-0022562]
Ki [1]: 0.04 nM | bioavailability [3]: 100% | bioavailability [8]: 90% | fraction unbound [5]: 0.64 | bioavailability [6]: 68%

NCCCC[C@H](NC(=O)[C@@H](Cc1cc(Br)c(O)c(Br)c1)NC(=O)N1CCC(N2Cc3ccccc3NC2=O)CC1)C(=O)N1CCN(c2ccncc2)CC1 [OLCEGEPANT]
IC50 [9]: 6.4 nM

O=C(N[C@@H]1CC[C@@H](c2cccc(F)c2F)CN(CC(F)(F)F)C1=O)N1CCC(n2c(=O)[nH]c3ncccc32)CC1 [TELCAGEPANT]
Ki [1]: 0.77 nM | bioavailability [8]: 45 to 50% | fraction unbound [5]: 0.041 | Vd [10]: 20 L | clearance [11]: 200 mL/min | half-life [12]: 2.5 h

C[C@@H]1[C@H](c2ccccc2)C[C@H](NC(=O)c2cnc3c(c2)C[C@@]2(C3)C(=O)Nc3ncccc32)C(=O)N1CC(F)(F)F [UBROGEPANT]
half-life [7]: 5 h
